We go through six molecules from PubChem BioAssay (NCI).

Test systems include OVCAR-4 ovarian; NCI-H460 lung; UACC-62 melanoma; HOP-92 NSCLC; UO-31 renal; HCC-2998 colon; MALME-3M melanoma; SK-MEL-5 melanoma; KM12 colon.
Common to all, as to experiment: inhibition of tumour cell growth, NCI panel, 48 h

SMILES strings stand for the structures. Several values for one entry are separate records, joined by “and”; a condition that tells them apart may be missing. Equal values may be shown once.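 Interpolation was linear, between the two tested concentrations surrounding the appropriate level; five concentrations were tested over 48 hours in 96-well plates. At the GI50, growth is halved. Definition used: TGI = concentration required for complete inhibition of growth.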 Some results are limits rather than exact numbers.

Turning to `O=c1n(CC2CO2)c(=O)n(CC2CO2)c(=O)n1CC1CO1` (stereo not drawn), the GI50 in the assay with OVCAR-4 ovarian is 25.9 µM and 23 µM; in the assay with NCI-H460 lung it was 6610 nM and 743 nM; in the assay on UACC-62 melanoma, 5580 nM; in the assay with HOP-92 NSCLC it was 18000 nM and 7220 nM; in the assay on UO-31 renal, 21.1 µM and 6.42 µM; in the assay on HCC-2998 colon, 11.4 µM and 21.2 µM. Moreover, the GI50 in the assay on MALME-3M melanoma is 17.1 µM and 43.2 µM; in the assay with SK-MEL-5 melanoma it was 16.8 µM and 25.3 µM and 9.6 µM; in the assay with KM12 colon, 21.3 µM. For the same molecule, the TGI was 112 µM and > 100 µM with OVCAR-4 ovarian; 32 µM and 29.6 µM and 12.2 µM in the assay on NCI-H460 lung; 41.9 µM and 75.5 µM in the assay on UACC-62 melanoma; 63.7 µM and 111 µM and > 100 µM in the assay on HOP-92 NSCLC; 88.6 µM and 118 µM and > 100 µM with UO-31 renal; 27 µM and 108 µM and > 100 µM with HCC-2998 colon. Moreover, the TGI with MALME-3M melanoma was 44.3 µM and 70.2 µM and > 100 µM; in the assay with SK-MEL-5 melanoma it was 37.3 µM and 79.6 µM and 75.6 µM; in the assay on KM12 colon, 112 µM and > 100 µM.

With `CNCCNc1c2c(c(NCCNC)c3c(CN(C)C)c[nH]c13)C(=O)c1ccccc1C2=O`, the GI50 in the assay on OVCAR-4 ovarian is 4.79 µM; in the assay with NCI-H460 lung it was 1460 nM; in the assay on UACC-62 melanoma, 2780 nM; with HOP-92 NSCLC it was 1020 nM; in the assay on UO-31 renal it was 3 µM; with HCC-2998 colon it was 1.36 µM. In addition, the GI50 in the assay with MALME-3M melanoma was 6.73 µM; with SK-MEL-5 melanoma, 2.98 µM; in the assay on KM12 colon, 2.8 µM. The TGI in the assay on OVCAR-4 ovarian was 17.5 µM; with NCI-H460 lung it was 11.2 µM; in the assay on UACC-62 melanoma it was 19.7 µM; in the assay with HOP-92 NSCLC it was 5.33 µM; in the assay on UO-31 renal, 14.4 µM; in the assay with HCC-2998 colon it was 5.37 µM. In addition, the TGI in the assay on MALME-3M melanoma amounted to 15.5 µM; in the assay with SK-MEL-5 melanoma, 14.2 µM; in the assay with KM12 colon, 9.5 µM.

On to `Cc1c2cccnc2c(C)c2c1c1cc(CO)ccc1n2C`, for which the GI50 was 2.82 µM in the assay with OVCAR-4 ovarian; 1230 nM with NCI-H460 lung; 1410 nM with UACC-62 melanoma; 2100 nM in the assay with HOP-92 NSCLC; 1.41 µM with UO-31 renal; 3.38 µM in the assay with HCC-2998 colon. Besides, the values for the GI50 with MALME-3M melanoma, with SK-MEL-5 melanoma and in the assay with KM12 colon were 1.93 µM, 1.75 µM and 2.33 µM, respectively. The TGI in the assay on OVCAR-4 ovarian was determined as 10.5 µM; with NCI-H460 lung, 6.12 µM; with UACC-62 melanoma it was 4.56 µM; in the assay on HOP-92 NSCLC it was 7.31 µM; in the assay with UO-31 renal, 10.5 µM; in the assay with HCC-2998 colon, 13.9 µM. Moreover, the TGI came to 7.82 µM with MALME-3M melanoma, 5.12 µM in the assay on SK-MEL-5 melanoma and 17 µM in the assay with KM12 colon.

On to `COc1ccc2c(c1)C(C)Cc1c(Cl)ncnc1N2C` (stereo not drawn), for which the GI50 in the assay with OVCAR-4 ovarian was 0.395 µM; with NCI-H460 lung, 493 nM; in the assay on UACC-62 melanoma, 445 nM; in the assay on HOP-92 NSCLC it was 1250 nM; in the assay with UO-31 renal, 0.364 µM; in the assay on HCC-2998 colon, 0.402 µM. Besides, the GI50 in the assay on MALME-3M melanoma is 0.294 µM; in the assay with SK-MEL-5 melanoma, 0.188 µM; with KM12 colon, 0.298 µM. In addition, the TGI is above 100 µM with OVCAR-4 ovarian; above 100 µM with NCI-H460 lung; 19 µM in the assay on UACC-62 melanoma; 7.5 µM in the assay on HOP-92 NSCLC; 42 µM in the assay with UO-31 renal; 14.3 µM with HCC-2998 colon. Also, the TGI with MALME-3M melanoma is 3.63 µM; in the assay on SK-MEL-5 melanoma, 0.353 µM; in the assay with KM12 colon, 1.37 µM.

As to `Cn1cc(C2=C(c3ccc4ccccc4c3)C(=O)NC2=O)c2ccccc21`, the GI50 with OVCAR-4 ovarian is above 25 µM; with NCI-H460 lung, above 25000 nM; in the assay with UACC-62 melanoma, 21300 nM; in the assay on HOP-92 NSCLC it was above 25000 nM; in the assay with UO-31 renal it was above 12.4 µM; in the assay with HCC-2998 colon, above 25 µM. Also, the GI50 in the assay with MALME-3M melanoma was above 22.1 µM; with SK-MEL-5 melanoma, above 25 µM; in the assay with KM12 colon, 12.5 µM. Moreover, the TGI with OVCAR-4 ovarian, in the assay with NCI-H460 lung, in the assay on UACC-62 melanoma, with HOP-92 NSCLC, in the assay on UO-31 renal and with HCC-2998 colon was above 25 µM in each case. The TGI in the assay with MALME-3M melanoma, in the assay with SK-MEL-5 melanoma and in the assay with KM12 colon was above 25 µM throughout.

For the molecule `CCN1CCN(c2ccc(Nc3cc(N(C)C(=O)Nc4c(Cl)c(OC)cc(OC)c4Cl)ncn3)cc2)CC1`, the GI50 in the assay with OVCAR-4 ovarian was 0.851 µM; in the assay on NCI-H460 lung, 1870 nM; in the assay on UACC-62 melanoma, 1660 nM; in the assay on HOP-92 NSCLC it was 2280 nM; in the assay with UO-31 renal, 1.35 µM; in the assay on HCC-2998 colon it was 8.04 µM. For the same molecule, the results for the GI50 in the assay with MALME-3M melanoma, in the assay on SK-MEL-5 melanoma and with KM12 colon were 1.82 µM, 4.27 µM and 4.47 µM, respectively. Also, the TGI came to 12.1 µM in the assay with OVCAR-4 ovarian; 5.42 µM in the assay with NCI-H460 lung; 3.14 µM in the assay on UACC-62 melanoma; 27.3 µM in the assay with HOP-92 NSCLC; 10 µM in the assay with UO-31 renal; 32.5 µM with HCC-2998 colon. For the same molecule, the values for the TGI with MALME-3M melanoma, with SK-MEL-5 melanoma and with KM12 colon were 3.5 µM, 8.47 µM and 18.7 µM, respectively.
